In ChEMBL document CHEMBL1154011, “Discovery and structural analysis of Eph receptor tyrosine kinase inhibitors” (Bioorg Med Chem Lett, 2009) one finds inhibition data, which are given here for five compounds.

Assay [1] has as its target T1, Ephrin type-A receptor 6 (Homo sapiens) (UniProt Q9UF33).
T1 sequence (whole entry): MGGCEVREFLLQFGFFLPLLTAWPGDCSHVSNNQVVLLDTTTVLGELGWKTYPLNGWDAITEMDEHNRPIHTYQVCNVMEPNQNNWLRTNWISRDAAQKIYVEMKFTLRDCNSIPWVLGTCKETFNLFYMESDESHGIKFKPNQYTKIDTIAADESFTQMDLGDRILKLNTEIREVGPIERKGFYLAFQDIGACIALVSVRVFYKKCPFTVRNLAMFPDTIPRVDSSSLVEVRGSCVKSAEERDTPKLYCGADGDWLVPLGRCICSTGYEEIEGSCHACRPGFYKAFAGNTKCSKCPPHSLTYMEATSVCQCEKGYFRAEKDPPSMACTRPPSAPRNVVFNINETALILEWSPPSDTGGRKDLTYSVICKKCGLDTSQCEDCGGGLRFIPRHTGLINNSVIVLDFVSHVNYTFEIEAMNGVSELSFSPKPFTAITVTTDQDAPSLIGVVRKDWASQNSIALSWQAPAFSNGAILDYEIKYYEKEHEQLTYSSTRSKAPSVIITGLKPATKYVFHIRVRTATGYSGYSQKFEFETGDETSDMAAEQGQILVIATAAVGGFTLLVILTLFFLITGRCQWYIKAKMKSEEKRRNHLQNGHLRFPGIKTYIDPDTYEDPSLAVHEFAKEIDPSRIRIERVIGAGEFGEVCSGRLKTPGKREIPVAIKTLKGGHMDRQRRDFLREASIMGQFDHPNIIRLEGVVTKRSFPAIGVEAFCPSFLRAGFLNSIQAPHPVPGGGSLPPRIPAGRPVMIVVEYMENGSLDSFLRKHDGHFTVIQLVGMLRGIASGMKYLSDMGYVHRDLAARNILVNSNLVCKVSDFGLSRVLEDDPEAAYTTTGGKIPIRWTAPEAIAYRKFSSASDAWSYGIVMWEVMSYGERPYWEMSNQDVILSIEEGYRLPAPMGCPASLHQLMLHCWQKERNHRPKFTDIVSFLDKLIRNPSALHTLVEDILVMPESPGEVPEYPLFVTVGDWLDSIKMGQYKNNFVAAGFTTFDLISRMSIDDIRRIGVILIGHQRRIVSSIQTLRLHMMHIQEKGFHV
Briefly: Inhibition of EphA6 at 10 uM.

Assay [2] has as its target Serine/threonine-protein kinase B-raf (Homo sapiens) (UniProt P15056). Briefly: Inhibition of Tel fused b-Raf expressed in mouse BA/F3 cells. The assay is classed as cell-based. The conditions noted are these: BaF3.
The target in assay [3] is T2, Ephrin type-B receptor 1 (Homo sapiens) (UniProt P54762).
T2 sequence (whole entry): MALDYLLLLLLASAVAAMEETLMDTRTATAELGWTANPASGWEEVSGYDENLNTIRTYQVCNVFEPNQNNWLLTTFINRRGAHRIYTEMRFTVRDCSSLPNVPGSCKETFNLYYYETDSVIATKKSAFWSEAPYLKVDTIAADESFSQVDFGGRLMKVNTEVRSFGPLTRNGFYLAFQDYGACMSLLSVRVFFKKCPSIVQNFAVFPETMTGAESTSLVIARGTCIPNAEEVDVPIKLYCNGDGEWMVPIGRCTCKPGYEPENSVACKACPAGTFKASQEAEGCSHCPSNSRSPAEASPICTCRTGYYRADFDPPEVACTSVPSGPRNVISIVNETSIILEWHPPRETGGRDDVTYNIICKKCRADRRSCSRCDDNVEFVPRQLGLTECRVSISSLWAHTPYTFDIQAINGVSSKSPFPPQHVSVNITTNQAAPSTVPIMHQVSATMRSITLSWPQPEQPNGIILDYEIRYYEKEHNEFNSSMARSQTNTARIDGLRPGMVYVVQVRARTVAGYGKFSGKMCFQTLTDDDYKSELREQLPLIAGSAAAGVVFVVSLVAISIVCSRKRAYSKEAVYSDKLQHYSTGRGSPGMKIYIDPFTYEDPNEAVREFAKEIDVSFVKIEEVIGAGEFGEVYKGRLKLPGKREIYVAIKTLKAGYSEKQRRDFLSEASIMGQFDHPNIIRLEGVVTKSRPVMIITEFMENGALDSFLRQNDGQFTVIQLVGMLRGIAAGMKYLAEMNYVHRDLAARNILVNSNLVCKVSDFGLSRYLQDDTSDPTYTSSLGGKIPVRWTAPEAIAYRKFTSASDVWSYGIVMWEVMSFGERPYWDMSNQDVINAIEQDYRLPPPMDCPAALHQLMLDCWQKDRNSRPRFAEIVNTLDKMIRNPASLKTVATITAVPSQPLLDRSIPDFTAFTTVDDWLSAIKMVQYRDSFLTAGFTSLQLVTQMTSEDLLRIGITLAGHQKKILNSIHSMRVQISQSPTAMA
Kind of assay: Inhibition of EphB1 at 10 uM.

In assay [4] the target is Ephrin type-A receptor 7 (Homo sapiens) (UniProt Q15375). Briefly: Inhibition of EphA7 at 10 uM.
The target in assay [5] is Mast/stem cell growth factor receptor Kit (Homo sapiens) (UniProt P10721). Briefly: Inhibition of c-kit expressed in mouse BA/F3 cells. The assay is classed as cell-based. The following applies: BaF3.
The target in assay [6] is Fibroblast growth factor receptor 4 (Homo sapiens) (UniProt P22455). Kind of assay: Inhibition of FGFR4 expressed in mouse BA/F3 cells. In kind it is cell-based. The conditions noted are these: BaF3.
Assay [7] addresses Fibroblast growth factor receptor 2 (Homo sapiens) (UniProt P21802). Kind of assay: Inhibition of FGFR2 expressed in mouse BA/F3 cells. In kind it is cell-based. The conditions noted are these: BaF3.
A further assay relates to BaF3. Briefly: Inhibition of PDGFR expressed in mouse BA/F3 cells. The assay is classed as cell-based.
The target of assay [8] is Tyrosine-protein kinase ABL1 (Homo sapiens) (UniProt P00519). Kind of assay: Inhibition of Abl expressed in mouse BA/F3 cells. In kind it is cell-based. The conditions noted are these: BaF3.
Assay [9] has as its target Fibroblast growth factor receptor 3 (Homo sapiens) (UniProt P22607). Kind of assay: Inhibition of FGFR3 expressed in mouse BA/F3 cells. The conditions noted are these: BaF3. The assay is classed as cell-based.
Assay [10] addresses Bcr/Abl fusion protein (Homo sapiens) (UniProt P00519+P11274). Kind of assay: Inhibition of Bcr-Abl expressed in mouse BA/F3 cells. In kind it is cell-based. The conditions noted are these: BaF3.
In assay [11] the target is Ephrin type-A receptor 8 (Homo sapiens) (UniProt P29322). Briefly: Inhibition of EphA8 at 10 uM.
The target in assay [12] is Platelet-derived growth factor receptor alpha (Homo sapiens) (UniProt P16234). Kind of assay: Inhibition of PDGFRalpha at 10 uM.
Assay [13] deals with Discoidin domain-containing receptor 2 (Homo sapiens) (UniProt Q16832). Briefly: Inhibition of DDR2 at 10 uM.
In assay [14] the target is Macrophage colony-stimulating factor 1 receptor (Homo sapiens) (UniProt P07333). Briefly: Inhibition of CSF1R at 10 uM.
Assay [15] deals with Serine/threonine-protein kinase B-raf (Homo sapiens) (UniProt P15056). Briefly: Inhibition of b-Raf at 100 uM.
Assay [16] addresses Mitogen-activated protein kinase 11 (Homo sapiens) (UniProt Q15759). Briefly: Inhibition of p38beta at 10 uM.
In assay [17] the target is Ephrin type-B receptor 3 (Homo sapiens) (UniProt P54753). Briefly: Inhibition of EphB3 at 10 uM.
The target in assay [18] is Epithelial discoidin domain-containing receptor 1 (Homo sapiens) (UniProt Q08345). Kind of assay: Inhibition of DDR1 at 10 uM.
Assay [19] addresses Mast/stem cell growth factor receptor Kit (Homo sapiens) (UniProt P10721). Briefly: Inhibition of Kit at 10 uM.
Assay [20] concerns the target Mitogen-activated protein kinase 14 (Homo sapiens) (UniProt Q16539). Briefly: Inhibition of p38alpha at 10 uM.
Assay [21] addresses Tyrosine-protein kinase Lck (Homo sapiens) (UniProt P06239). Briefly: Inhibition of Lck at 10 uM.
The target of assay [22] is Platelet-derived growth factor receptor beta (Homo sapiens) (UniProt P09619). Kind of assay: Inhibition of PDGFRbeta at 10 uM.
The target of assay [23] is Tyrosine-protein kinase FRK (Homo sapiens) (UniProt P42685). Kind of assay: Inhibition of Frk at 10 uM.
Assay [24] deals with Ephrin type-B receptor 2 (Homo sapiens) (UniProt P29323). Kind of assay: Inhibition of EphB2 at 10 uM.
Assay [25] addresses Ephrin type-A receptor 2 (Homo sapiens) (UniProt P29317). Briefly: Inhibition of EphA2 at 10 uM.
In assay [26] the target is RAF proto-oncogene serine/threonine-protein kinase (Homo sapiens) (UniProt P04049). Kind of assay: Inhibition of RAF1 at 10 uM.
Assay [27] has as its target Ephrin type-A receptor 5 (Homo sapiens) (UniProt P54756). Briefly: Inhibition of EphA5 at 10 uM.

Molecules are shown by their SMILES. Activity calls are given as the source filed them. No cut-off for these calls is given here.

Chain of Ephrin type-A receptor 7 (Homo sapiens) (Q15375 28-998 limits assumed): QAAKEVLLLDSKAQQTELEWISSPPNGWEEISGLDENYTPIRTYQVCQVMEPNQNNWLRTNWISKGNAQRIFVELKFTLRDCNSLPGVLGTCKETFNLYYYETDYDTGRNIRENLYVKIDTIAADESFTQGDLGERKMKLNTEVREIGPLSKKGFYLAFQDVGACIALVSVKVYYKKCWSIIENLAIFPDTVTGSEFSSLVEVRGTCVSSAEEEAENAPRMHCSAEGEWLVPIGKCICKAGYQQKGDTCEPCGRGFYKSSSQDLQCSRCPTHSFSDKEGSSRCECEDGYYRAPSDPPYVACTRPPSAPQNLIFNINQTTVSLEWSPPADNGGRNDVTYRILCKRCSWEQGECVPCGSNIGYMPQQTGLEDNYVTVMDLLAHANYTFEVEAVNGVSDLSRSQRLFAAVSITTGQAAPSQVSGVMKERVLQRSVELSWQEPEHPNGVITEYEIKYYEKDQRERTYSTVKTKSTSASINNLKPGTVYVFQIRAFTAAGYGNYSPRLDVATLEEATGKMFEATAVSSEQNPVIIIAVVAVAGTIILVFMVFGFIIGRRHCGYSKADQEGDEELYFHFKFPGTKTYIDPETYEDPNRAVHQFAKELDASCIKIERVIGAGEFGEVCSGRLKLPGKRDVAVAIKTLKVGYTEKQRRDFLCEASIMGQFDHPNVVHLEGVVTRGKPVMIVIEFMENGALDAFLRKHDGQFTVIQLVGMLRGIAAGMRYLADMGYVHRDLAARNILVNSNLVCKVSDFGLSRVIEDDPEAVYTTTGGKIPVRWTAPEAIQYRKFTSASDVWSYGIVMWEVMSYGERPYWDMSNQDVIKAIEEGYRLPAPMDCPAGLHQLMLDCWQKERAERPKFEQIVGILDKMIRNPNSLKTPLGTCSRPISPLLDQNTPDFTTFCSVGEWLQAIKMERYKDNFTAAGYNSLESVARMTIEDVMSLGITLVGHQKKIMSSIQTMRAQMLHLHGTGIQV
Chain of Serine/threonine-protein kinase B-raf (Homo sapiens) (P15056 whole entry, the tested form may be a part): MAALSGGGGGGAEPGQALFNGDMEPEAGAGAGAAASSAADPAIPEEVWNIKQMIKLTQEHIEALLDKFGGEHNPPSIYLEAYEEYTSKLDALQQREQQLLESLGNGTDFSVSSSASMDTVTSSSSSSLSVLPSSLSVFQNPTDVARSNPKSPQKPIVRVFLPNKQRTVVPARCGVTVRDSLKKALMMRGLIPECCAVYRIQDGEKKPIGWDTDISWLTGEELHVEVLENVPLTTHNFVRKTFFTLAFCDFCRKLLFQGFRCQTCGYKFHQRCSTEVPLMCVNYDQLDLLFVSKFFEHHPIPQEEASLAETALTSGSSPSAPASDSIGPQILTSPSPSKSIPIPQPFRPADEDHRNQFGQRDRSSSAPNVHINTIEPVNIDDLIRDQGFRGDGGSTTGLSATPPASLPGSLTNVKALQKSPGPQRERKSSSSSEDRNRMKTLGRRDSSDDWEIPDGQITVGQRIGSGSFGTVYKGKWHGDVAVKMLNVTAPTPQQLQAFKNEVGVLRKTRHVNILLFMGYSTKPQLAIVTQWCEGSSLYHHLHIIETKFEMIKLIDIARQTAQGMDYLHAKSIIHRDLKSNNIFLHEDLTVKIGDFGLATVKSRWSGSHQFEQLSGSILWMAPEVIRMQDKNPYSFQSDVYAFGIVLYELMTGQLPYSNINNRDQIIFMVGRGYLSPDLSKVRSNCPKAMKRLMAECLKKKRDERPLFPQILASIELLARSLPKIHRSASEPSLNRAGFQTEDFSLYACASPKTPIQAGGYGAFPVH
Chain of Tyrosine-protein kinase ABL1 (Homo sapiens) (P00519 whole entry): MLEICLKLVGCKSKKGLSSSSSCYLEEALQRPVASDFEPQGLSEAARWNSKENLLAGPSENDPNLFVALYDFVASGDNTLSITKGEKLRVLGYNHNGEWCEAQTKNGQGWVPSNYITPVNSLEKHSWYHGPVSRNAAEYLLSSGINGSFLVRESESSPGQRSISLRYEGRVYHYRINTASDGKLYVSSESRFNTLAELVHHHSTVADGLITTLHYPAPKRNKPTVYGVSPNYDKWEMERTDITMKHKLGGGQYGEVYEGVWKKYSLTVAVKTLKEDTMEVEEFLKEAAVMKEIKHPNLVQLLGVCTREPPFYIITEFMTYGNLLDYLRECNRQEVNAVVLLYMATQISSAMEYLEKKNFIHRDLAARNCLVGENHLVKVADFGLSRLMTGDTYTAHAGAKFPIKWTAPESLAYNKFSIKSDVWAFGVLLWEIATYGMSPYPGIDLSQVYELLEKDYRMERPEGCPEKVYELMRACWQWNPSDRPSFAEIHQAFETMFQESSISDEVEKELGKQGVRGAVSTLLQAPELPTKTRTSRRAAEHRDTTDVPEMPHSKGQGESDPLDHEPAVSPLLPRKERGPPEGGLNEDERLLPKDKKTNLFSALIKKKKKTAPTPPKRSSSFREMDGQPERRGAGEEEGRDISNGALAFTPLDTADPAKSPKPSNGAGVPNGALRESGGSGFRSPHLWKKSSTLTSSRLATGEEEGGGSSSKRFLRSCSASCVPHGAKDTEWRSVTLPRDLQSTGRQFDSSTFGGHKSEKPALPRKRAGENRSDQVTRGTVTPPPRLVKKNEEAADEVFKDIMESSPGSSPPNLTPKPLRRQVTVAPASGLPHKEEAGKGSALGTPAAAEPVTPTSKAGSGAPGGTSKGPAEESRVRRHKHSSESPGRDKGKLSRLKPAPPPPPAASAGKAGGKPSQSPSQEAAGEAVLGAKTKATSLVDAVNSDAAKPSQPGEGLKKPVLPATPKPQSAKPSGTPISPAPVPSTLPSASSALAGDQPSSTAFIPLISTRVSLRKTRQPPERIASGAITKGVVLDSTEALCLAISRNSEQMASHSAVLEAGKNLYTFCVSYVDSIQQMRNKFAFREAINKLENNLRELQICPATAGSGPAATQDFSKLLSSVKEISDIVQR
Chain of Mast/stem cell growth factor receptor Kit (Homo sapiens) (P10721 whole entry): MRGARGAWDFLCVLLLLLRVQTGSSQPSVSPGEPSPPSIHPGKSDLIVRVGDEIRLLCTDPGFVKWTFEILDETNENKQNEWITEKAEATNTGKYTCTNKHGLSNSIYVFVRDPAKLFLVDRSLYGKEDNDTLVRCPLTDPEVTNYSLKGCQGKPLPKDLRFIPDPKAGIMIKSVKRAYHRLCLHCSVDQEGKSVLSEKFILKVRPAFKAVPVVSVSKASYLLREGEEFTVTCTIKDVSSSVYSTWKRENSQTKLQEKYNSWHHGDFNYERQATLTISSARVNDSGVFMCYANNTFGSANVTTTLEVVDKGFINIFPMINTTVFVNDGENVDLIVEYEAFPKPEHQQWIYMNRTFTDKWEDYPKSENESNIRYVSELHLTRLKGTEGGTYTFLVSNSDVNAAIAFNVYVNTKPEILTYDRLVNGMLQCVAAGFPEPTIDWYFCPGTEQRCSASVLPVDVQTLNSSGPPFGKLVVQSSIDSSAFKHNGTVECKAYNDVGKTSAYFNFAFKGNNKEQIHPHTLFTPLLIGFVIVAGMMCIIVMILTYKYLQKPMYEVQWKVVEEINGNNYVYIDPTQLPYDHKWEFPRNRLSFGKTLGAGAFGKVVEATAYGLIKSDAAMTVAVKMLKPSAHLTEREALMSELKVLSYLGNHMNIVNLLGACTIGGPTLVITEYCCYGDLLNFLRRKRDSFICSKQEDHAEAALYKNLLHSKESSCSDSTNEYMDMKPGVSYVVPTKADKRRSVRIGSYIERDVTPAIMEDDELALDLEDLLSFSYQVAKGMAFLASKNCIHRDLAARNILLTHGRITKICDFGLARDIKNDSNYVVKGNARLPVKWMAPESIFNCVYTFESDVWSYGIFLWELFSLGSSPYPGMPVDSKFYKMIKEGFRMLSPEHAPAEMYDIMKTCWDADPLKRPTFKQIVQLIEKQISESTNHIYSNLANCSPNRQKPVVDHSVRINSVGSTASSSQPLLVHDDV
Chain of Ephrin type-B receptor 2 (Homo sapiens) (P29323 whole entry): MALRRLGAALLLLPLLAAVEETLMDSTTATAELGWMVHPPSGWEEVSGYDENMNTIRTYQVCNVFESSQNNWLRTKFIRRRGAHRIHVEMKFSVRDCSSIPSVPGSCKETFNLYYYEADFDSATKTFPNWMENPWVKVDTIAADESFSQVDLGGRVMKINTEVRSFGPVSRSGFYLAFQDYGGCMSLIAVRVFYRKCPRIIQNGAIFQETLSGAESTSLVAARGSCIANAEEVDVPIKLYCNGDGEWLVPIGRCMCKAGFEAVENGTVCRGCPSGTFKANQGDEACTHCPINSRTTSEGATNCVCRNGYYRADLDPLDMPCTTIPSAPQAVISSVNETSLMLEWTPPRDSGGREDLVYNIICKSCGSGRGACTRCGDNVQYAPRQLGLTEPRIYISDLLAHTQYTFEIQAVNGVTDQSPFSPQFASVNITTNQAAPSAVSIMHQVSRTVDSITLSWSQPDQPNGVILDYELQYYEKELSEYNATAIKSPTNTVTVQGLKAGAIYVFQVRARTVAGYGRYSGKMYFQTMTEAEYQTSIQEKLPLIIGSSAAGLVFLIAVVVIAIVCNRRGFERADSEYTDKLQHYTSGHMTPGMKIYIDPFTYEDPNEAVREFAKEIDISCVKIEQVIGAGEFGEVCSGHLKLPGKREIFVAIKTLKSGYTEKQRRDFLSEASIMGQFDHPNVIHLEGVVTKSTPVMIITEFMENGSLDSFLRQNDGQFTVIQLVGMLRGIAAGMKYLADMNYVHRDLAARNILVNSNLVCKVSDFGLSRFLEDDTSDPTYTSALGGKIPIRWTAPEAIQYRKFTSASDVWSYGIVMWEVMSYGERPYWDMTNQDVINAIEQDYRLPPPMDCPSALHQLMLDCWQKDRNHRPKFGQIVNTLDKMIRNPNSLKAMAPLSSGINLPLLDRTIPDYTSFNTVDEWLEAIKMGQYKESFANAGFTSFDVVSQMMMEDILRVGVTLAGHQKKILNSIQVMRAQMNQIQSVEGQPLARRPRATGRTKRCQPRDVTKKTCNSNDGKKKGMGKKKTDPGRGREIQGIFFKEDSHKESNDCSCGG

For `Cc1cn(-c2cc(NC(=O)c3ccc(C)c(NC(=O)c4ccno4)c3)cc(C(F)(F)F)c2)cn1`, the inhibition result in assay [1], in [2], in assay [3] and in assay [4] was “inactive” each time.
As for `Cc1ccc(C(=O)Nc2cccc(C(F)(F)F)c2)cc1Nc1[nH]cnc2ncnc1-2`, the inhibition result (in [5]; in assay [6]; in assay [7]; in the assay with BaF3; in assay [8]; in assay [9]) was “Active” each time.
Regarding `Cc1ccc(C(=O)Nc2cccc(C(F)(F)F)c2)cc1Nc1ccc2occc(=O)c2c1`, the inhibition result (in assay [5]; in assay [10]; in the assay with BaF3; in assay [8]) was “Active” throughout. The inhibition entry in [1], in assay [3] and in assay [4] was “inactive” throughout.
With `Cc1ccc(C(=O)Nc2cccc(C(F)(F)F)c2)cc1Nc1cncc(C(N)=O)c1`, the inhibition result in [1], in assay [2], in assay [3] and in [4] was “inactive” throughout.
As for `CCN1CCN(Cc2ccc(NC(=O)c3ccc(C)c(NC(=O)c4cncc(-c5cccs5)c4)c3)cc2C(F)(F)F)CC1`, the inhibition result (in assay [5]; in assay [11]; in [12]; in [13]; in assay [10]; in the assay on BaF3) was “Active” throughout. Further, the inhibition result in [8], in assay [14], in [15], in assay [16], in assay [17] and in [18] was “Active” each time. The inhibition result in assay [19], in assay [20], in assay [21], in [22], in [3] and in assay [23] was “Active” throughout. The inhibition result in assay [24], in assay [25], in [26] and in assay [27] was “Active” throughout.
